For 18 molecules, IC50 results are on record in patent US20230150951A1, “2,5- OR 2,6-DISUBSTITUTED HYDROQUINONE DERIVATIVES WITH AT LEAST ONE CARBOXY, SULFO OR AMIDO GROUP USEFUL AS MEDICAMENTS” (OM PHARMA SA, priority 2020, published 2023).

For the test, the target named is T1, VEGF-A (Homo sapiens, UniProt P15692).
T1 construct: purchased ProQinase GmbH
T1 sequence (P15692 27-191 isoform P15692-4): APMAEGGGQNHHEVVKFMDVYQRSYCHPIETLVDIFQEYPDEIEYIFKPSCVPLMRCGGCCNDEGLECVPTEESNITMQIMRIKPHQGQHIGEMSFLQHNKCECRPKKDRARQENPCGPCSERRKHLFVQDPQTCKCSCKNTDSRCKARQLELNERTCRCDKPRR
As to the kind of experiment: VEGF-A induced sprouting of HUVEC, spheroid-based cellular angiogenesis assay. Type of test: cell-based. As to conditions: VEGF-A 25 ng/mL preincubated with compound, 24 h, read-out: VEGF-A1 IC50. Put shortly: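 Compound (final 100 down to 1.56×10^−6 M) was mixed with growth factor (final 25 ng/mL) for 30 min at 37°C, then added onto collagen-embedded 400-cell HUVEC spheroids.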
As to `O=C(O)c1cc(NC(=O)c2cc(O)c(C(=O)O)cc2O)cc(NC(=O)c2cc(O)c(C(=O)O)cc2O)c1` [Ib-010a, 3,5-bis(2,5-dihydroxy-4-carboxybenzoylamino)benzoic acid], the IC50 was found to be 15 µM.
To `CC(=O)N(Cc1cc(O)c(C(=O)O)cc1O)Cc1cc(O)c(C(=O)O)cc1O` [IIIc-057a, N,N-Bis(4-carboxy-2,5-dihydroxyphenylmethyl)acetamide] belongs 38 µM; to `O=C(Nc1ccccc1-c1nnn[nH]1)c1cc(O)c(C(=O)Nc2ccccc2-c2nnn[nH]2)cc1O` [Ic-001aTz2, N1,N4-bis(2-(1H-tetrazol-5-yl)phenyl)-2,5-dihydroxyterephthalamide], 45 µM.
The figure for `O=C(O)c1cc(O)cc(CSCc2cc(O)cc(C(=O)O)c2O)c1O` [IVc-058a, 3-((2,5-Dihydroxy-3-carboxyphenyl)methylthiomethyl)-2,5-dihydroxybenzoic acid] is 83 µM; for `O=C(O)c1cc(O)c(C(=O)Nc2ccccc2C(=O)O)cc1O` [Ia-001a, 4-(2-carboxyphenylaminocarbonyl)-2,5-dihydroxybenzoic acid] it is 7.3 µM.
To `O=C(O)Cc1cc(O)c(C(=O)Nc2ccccc2-c2nnn[nH]2)cc1O` [IIIa-001aTz] belongs 12 µM; to `O=C(O)c1cc(NC(=O)c2cc(O)c(C(=O)Nc3ccc(O)c(C(=O)O)c3)cc2O)ccc1O` [Ic-007a, 5-(4-(3-carboxy-4-hydroxyphenylaminocarbonyl)-2,5-dihydroxybenzamido)-2-hydroxy benzoic acid], 3.2 µM.
`O=C(O)c1ccccc1CNC(=O)c1cc(O)cc(C(=O)O)c1O` [IIa-053a, 3-(2-Carboxyphenylmethylaminocarbonyl)-2,5-dihydroxybenzoic acid]: the IC50 worked out at 37 µM.
The figure for `COC(=O)c1cc(OC(C)=O)cc(CS(=O)(=O)Cc2cc(OC(C)=O)cc(C(=O)OC)c2OC(C)=O)c1OC(C)=O` [IVc-059a-E2-A4] is 25 µM.
In the case of `O=C(O)c1cc(O)c(CN(Cc2cc(O)c(C(=O)O)cc2O)Cc2cc(O)c(C(=O)O)cc2O)cc1O` [IIIc-061a, Tris(4-carboxy-2,5-dihydroxyphenylmethyl)amine], the IC50 was 21 µM.
The figure for `O=C(O)c1cc(O)c(C(=O)Nc2ccc(-c3nnn[nH]3)cc2)cc1O` [Ia-003a-Tz, 4-(4-(1H-tetrazol-5-yl)phenyl-aminocarbonyl)-2,5-dihydroxybenzoic acid] is 13 µM.
`O=C(O)c1cc(O)c(C(=O)Nc2ccccc2-c2nnn[nH]2)cc1O` [Ia-001a-Tz, 4-(2-(1H-tetrazol-5-yl)phenyl-aminocarbonyl)-2,5-dihydroxybenzoic acid]: the IC50 was found to be 17 µM.
Regarding `O=C(O)c1cc(NC(=O)c2cc(O)c(C(=O)Nc3ccccc3-c3nnn[nH]3)cc2O)ccc1O` [Ic-001a-Tz/004a, 5-(4-(2-(1H-tetrazol-5-yl)phenylaminocarbonyl)-2,5-dihydroxybenzamido)-2-hydroxy benzoic acid], the IC50 came to 25 µM.
Regarding `O=C(O)c1cc(O)c(C(=O)Nc2ccccc2S(=O)(=O)O)cc1O` [Ia-001c, 2,5-dihydroxy-4-(2-sulfophenylaminocarbonyl)benzoic acid], the IC50 is no less than 100 µM.
On to `O=C(O)c1cc(O)cc(CS(=O)(=O)Cc2cc(O)cc(C(=O)O)c2O)c1O` [IVc-059a, 3-((2,5-Dihydroxy-3-carboxyphenyl)methylsulfonylmethyl)-2,5-dihydroxybenzoic acid], for which the IC50 turned out to be 12 µM.
Take `O=C(O)c1cc(O)ccc1NC(=O)c1cc(O)cc(C(=O)Nc2ccc(O)cc2C(=O)O)c1O` [IIc-009a, 2-(3-(2-carboxy-4-hydroxyphenylaminocarbonyl)-2,5-dihydroxybenzamido)-5-hydroxyl benzoic acid]: the half-inhibitory concentration (IC50) was found to be 182 µM.
On to `O=C(O)Cc1cc(O)c(C(=O)Nc2c(C(=O)O)cccc2C(=O)O)cc1O` [IIIa-013a, 2-(4-(carboxymethyl)-2,5-dihydroxybenzamido)isophthalic acid], for which the IC50 amounted to 43 µM.
`O=C(O)c1cc(NC(=O)c2cc(O)c(C(=O)O)cc2O)cc(C(=O)O)c1` [Ia-015a, 5-(4-carboxy-2,5-dihydroxybenzamido)isophthalic acid]: the half-maximal inhibitory concentration (IC50) came to 19 µM.
